The target of the first assay is Mcl-1 protein (UniProtKB primary accession number: Q07820) (Homo sapiens, UniProt Q07820). Description: Inhibition of Mcl-1 by fluorescence polarisation, Method 1. The assay is classed as binding. Particulars: fluorescence polarisation test; Method 1, or Method 2 where the value is underlined (underlining not visible); read-out: IC50 (M) Mcl-1 FP. On the procedure:
The relative binding potency of each compound was determined via Fluorescence Polarisation (FP).
An 11 point serial dilution of each compound was prepared in DMSO and 2 μl transferred into flat bottomed, low binding, 384-well plate (final DMSO concentration 5%). 38 μl of buffer (10 mM 4-(2-hydroxyethyl)-1-piperazineethanesulfonic acid [HEPES], 150 mM NaCl, 0.05% Tween 20, pH 7.4), containing the Fluorescein labelled ligand (final concentration 1 nM) and Mcl-1 protein (final concentration 5 nM) was then added.
Mcl-1 protein, sequence (Q07820 whole entry): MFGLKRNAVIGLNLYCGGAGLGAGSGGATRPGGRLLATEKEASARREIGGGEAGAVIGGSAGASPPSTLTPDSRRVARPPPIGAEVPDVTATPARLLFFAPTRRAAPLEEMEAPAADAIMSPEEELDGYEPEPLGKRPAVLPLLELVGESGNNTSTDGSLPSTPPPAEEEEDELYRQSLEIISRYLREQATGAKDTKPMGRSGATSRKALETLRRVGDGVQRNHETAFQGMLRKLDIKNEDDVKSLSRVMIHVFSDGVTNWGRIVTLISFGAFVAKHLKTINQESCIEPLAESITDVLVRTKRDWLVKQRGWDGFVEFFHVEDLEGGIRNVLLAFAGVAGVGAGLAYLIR
In the case of `CCOC(=O)C(Cc1ccccc1OCc1ccnc(-c2ccccc2F)n1)Oc1ncnc2sc(-c3ccc(F)cc3)c(-c3ccc(OCCN(C)CC)c(Cl)c3C)c12` [Example 801, ethyl (2R)-2-{[(5Sa)-5-(3-chloro-4-{2-[ethyl(methyl)amino]ethoxy}-2-methylphenyl)-6-(4-fluorophenyl)thieno[2,3-d]pyrimidin-4-yl]oxy}-3-(2-{[2-(2-fluorophenyl)pyrimidin-4-yl]methoxy}phenyl)propanoate], the IC50 was 4.37e-06 M.

`[2H]C([2H])([2H])Oc1ccccc1-c1nccc(COc2ccccc2CC(Oc2ncnc3sc(-c4ccc(F)cc4)c(-c4ccc(OCCN5CCN(C)CC5)c(Cl)c4C)c23)C(=O)OCC)n1` [Example 839, ethyl (2R)-2-{[(5Sa)-5-{3-chloro-2-methyl-4-[2-(4-methylpiperazin-1-yl)ethoxy]phenyl}-6-(4-fluorophenyl)thieno[2,3-d]pyrimidin-4-yl]oxy}-3-{2-[(2-{2-[(^2H3)methyloxy]phenyl}pyrimidin-4-yl)methoxy]phenyl}propanoate]: the IC50 turned out to be 6.91e-07 M.

Staying with this assay, now noted: fluorescence polarisation test; Method 2 values are underlined in the patent (underlining not visible here); read-out: IC50 (M) Mcl-1 FP.
Consider `Cc1c(-c2c(-c3ccc(F)cc3)sc3ncnc(OC(Cc4ccccc4OCc4nncn4C)C(=O)O)c23)ccc(OCCN2CCN(C)CC2)c1Cl` [Example 102, (2R)-2-{[(5Sa)-5-{3-chloro-2-methyl-4-[2-(4-methylpiperazin-1-yl)ethoxy]phenyl}-6-(4-fluorophenyl)thieno[2,3-d]pyrimidin-4-yl]oxy}-3-{2-[(4-methyl-4H-1,2,4-triazol-3-yl)methoxy]phenyl}propanoic acid], for which the IC50 turned out to be 9.5e-09 M.

In the case of `COc1ccccc1CC(Oc1ncnc2sc(-c3ccco3)c(-c3ccc(OCCN4CCN(CC(F)(F)F)CC4)c(Cl)c3C)c12)C(=O)O` [Example 327, (2R)-2-{[(5Sa)-5-(3-chloro-2-methyl-4-{2-[4-(2,2,2-trifluoroethyl)piperazin-1-yl]ethoxy}phenyl)-6-(furan-2-yl)thieno[2,3-d]pyrimidin-4-yl]oxy}-3-(2-methoxyphenyl)propanoic acid], the 50% inhibitory concentration (IC50) worked out at 1.5e-08 M.

Consider `Cc1c(-c2c(-c3ccc(F)cc3)sc3ncnc(OC(Cc4ccccc4OCc4ccccn4)C(=O)O)c23)ccc(OCCN2CCN(C)CC2)c1Cl` [Example 14, (2R)-2-{[(5Sa)-5-{3-chloro-2-methyl-4-[2-(4-methylpiperazin-1-yl)ethoxy]phenyl}-6-(4-fluorophenyl)thieno[2,3-d]pyrimidin-4-yl]oxy}-3-[2-(pyridin-2-ylmethoxy)phenyl]propanoic acid], for which the half-maximal inhibitory concentration (IC50) was 1.3e-08 M.

The assay is the same for the next values; noted with them: fluorescence polarisation; Method 1, or Method 2; read-out: IC50 (M) Mcl-1 FP.
`COc1ccccc1CC(Oc1ncnc2sc(-c3ccc(-c4ccccc4)o3)c(-c3ccc(OCCN4CCN(C)CC4)c(Cl)c3C)c12)C(=O)O` [Example 586, (2R)-2-{[(5Sa)-5-{3-chloro-2-methyl-4-[2-(4-methylpiperazin-1-yl)ethoxy]phenyl}-6-(5-phenylfuran-2-yl)thieno[2,3-d]pyrimidin-4-yl]oxy}-3-(2-methoxyphenyl)propanoic acid]: the 50% inhibitory concentration (IC50) amounted to 1.4e-06 M.

Take `Cc1c(-c2c(-c3ccccc3)sc3ncnc(OC(Cc4ccccc4)C(=O)O)c23)ccc(OCCN2CCN(C)CC2)c1Cl` [Example 502, (2R)-2-[((5Sa)-5-{3-chloro-2-methyl-4-[2-(4-methylpiperazin-1-yl)ethoxy]phenyl}-6-phenylthieno[2,3-d]pyrimidin-4-yl)oxy]-3-phenylpropanoic acid]: the IC50 was determined as 1.9e-08 M.

Take `Cc1c(-c2c(-c3ccc(F)cc3)sc3ncnc(O[C@H](Cc4ccccc4OCc4ccnc(-c5ccccc5CO)n4)C(=O)O)c23)ccc(OCCN2CCN(C)CC2)c1Cl` [Example 728, (2R)-2-{[(5Sa)-5-{3-chloro-2-methyl-4-[2-(4-methylpiperazin-1-yl)ethoxy]phenyl}-6-(4-fluorophenyl)thieno[2,3-d]pyrimidin-4-yl]oxy}-3-[2-({2-[2-(hydroxymethyl)phenyl]pyrimidin-4-yl}methoxy)phenyl]propanoic acid]: the IC50 turned out to be 1.18e-09 M.

In the case of `Cc1nc(-c2sc3ncnc(OC(Cc4ccccc4)C(=O)O)c3c2-c2ccc(OCCN3CCN(C)CC3)c(Cl)c2C)cs1` [Example 515, (2R)-2-{[(5Sa)-5-{3-chloro-2-methyl-4-[2-(4-methylpiperazin-1-yl)ethoxy]phenyl}-6-(2-methyl-1,3-thiazol-4-yl)thieno[2,3-d]pyrimidin-4-yl]oxy}-3-phenylpropanoic acid], the IC50 is 8.4e-08 M.

For the molecule `COc1ccc(-c2c(-c3ccc(F)cc3)sc3ncnc(OC(Cc4ccccc4OCCN(C)C)C(=O)O)c23)c(C)c1Cl` [Example 662, (2R)-2-{[(5Sa)-5-(3-chloro-4-methoxy-2-methylphenyl)-6-(4-fluorophenyl)thieno[2,3-d]pyrimidin-4-yl]oxy}-3-{2-[2-(dimethylamino)ethoxy]phenyl}propanoic acid], the 50% inhibitory concentration (IC50) is 2.7e-07 M.

Consider `Cc1c(-c2c(-c3ccc(F)cc3)sc3ncnc(OC(Cc4ccccc4OCC4CCCO4)C(=O)O)c23)ccc(OC2CCCN(C)C2)c1Cl` (single isomer, unassigned) [Example 650, (2R)-2-{[(5Sa)-5-{3-chloro-2-methyl-4-[((3R or S)-1-methylpiperidin-3-yl)oxy]phenyl}-6-(4-fluorophenyl)thieno[2,3-d]pyrimidin-4-yl]oxy}-3-{2-[(2R)-tetrahydrofuran-2-ylmethoxy]phenyl}propanoic acid], for which the IC50 amounted to 5.1e-08 M.

In the case of `COc1ccc(-c2c(-c3ccc(F)cc3)sc3ncnc(OC(Cc4ccccc4OCc4ccnn4CCN(C)C)C(=O)O)c23)c(C)c1Cl` [Example 663, (2R)-2-{[(5Sa)-5-(3-chloro-4-methoxy-2-methylphenyl)-6-(4-fluorophenyl)thieno[2,3-d]pyrimidin-4-yl]oxy}-3-[2-({1-[2-(dimethylamino)ethyl]-1H-pyrazol-5-yl}methoxy)phenyl]propanoic acid], the concentration for half-maximal inhibition (IC50) was 2.5e-08 M.

`COc1nccc(COc2ccccc2CC(Oc2ncnc3sc(-c4ccc(F)c(OCCN(C)C)c4)c(-c4ccc(OC)c(Cl)c4C)c23)C(=O)O)n1` [Example 702, (2R)-2-{[(5Sa)-5-(3-chloro-4-methoxy-2-methylphenyl)-6-{3-[2-(dimethylamino)ethoxy]-4-fluorophenyl}thieno[2,3-d]pyrimidin-4-yl]oxy}-3-{2-[(2-methoxypyrimidin-4-yl)methoxy]phenyl}propanoic acid]: the concentration for half-maximal inhibition (IC50) turned out to be 9.4e-09 M.

As for `COc1ccccc1CC(Oc1ncnc2sc(-c3ccc(C(OC)OC)o3)c(-c3ccc(OCCN4CCN(C)CC4)c(Cl)c3C)c12)C(=O)O` [Example 542, (2R)-2-[((5Sa)-5-{3-chloro-2-methyl-4-[2-(4-methylpiperazin-1-yl)ethoxy]phenyl}-6-[5-(dimethoxymethyl)furan-2-yl]thieno[2,3-d]pyrimidin-4-yl)oxy]-3-(2-methoxyphenyl)propanoic acid], the IC50 is 4.3e-07 M.

For `COCCCc1sc2ncnc(OC(Cc3ccccc3OCc3ccnc(OC)n3)C(=O)O)c2c1-c1ccc(OCCN2CCN(C)CC2)c(Cl)c1C` [Example 599, (2R)-2-{[(5Sa)-5-{3-chloro-2-methyl-4-[2-(4-methylpiperazin-1-yl)ethoxy]phenyl}-6-(3-methoxypropyl)thieno[2,3-d]pyrimidin-4-yl]oxy}-3-{2-[(2-methoxypyrimidin-4-yl)methoxy]phenyl}propanoic acid], the IC50 was found to be 1.1e-08 M.

Take `COc1ccccc1C[C@@H](Oc1ncnc2sc(-c3ccc(F)cc3)c(-c3ccc(CCCN4CCN(C)CC4)c(Cl)c3C)c12)C(=O)O` (single isomer, unassigned) [Example 653]: the 50% inhibitory concentration (IC50) came out at 1.6e-08 M.

Regarding `COc1ccccc1-c1nccc(COc2ccccc2CC(Oc2ncnc3sc(C#CCN4CCOCC4)c(-c4ccc(OCCN5CCN(C)CC5)c(Cl)c4C)c23)C(=O)O)n1` [Example 786, (2R)-2-[((5Sa)-5-{3-chloro-2-methyl-4-[2-(4-methylpiperazin-1-yl)ethoxy]phenyl}-6-[3-(morpholin-4-yl)prop-1-yn-1-yl]thieno[2,3-d]pyrimidin-4-yl)oxy]-3-(2-{[2-(2-methoxyphenyl)pyrimidin-4-yl]methoxy}phenyl)propanoic acid], the IC50 was 4.95e-09 M.

For the molecule `CCc1sc2ncnc(OC(Cc3ccccc3)C(=O)O)c2c1-c1cc(Cl)c(O)c(Cl)c1C` [Example 428, (2R)-2-{[(5Sa)-5-(3,5-dichloro-4-hydroxy-2-methylphenyl)-6-ethylthieno[2,3-d]pyrimidin-4-yl]oxy}-3-phenylpropanoic acid], the IC50 amounted to 7.5e-09 M.

Consider `COc1ccccc1C[C@@H](Oc1ncnc2sc(-c3cccc(F)c3F)c(-c3ccc(C#CCN4CCN(C)CC4)c(Cl)c3C)c12)C(=O)O` (single isomer, unassigned) [Example 716], for which the IC50 came out at 1.5e-06 M.

The assay is the same for the next values; noted with them: test compound at 10 uM; Method 1, or Method 2 where the value is underlined (underlining not visible).
For the molecule `CCCCCCCCOC(=O)[C@@H](Cc1ccccc1OC)Oc1ncnc2sc(-c3ccc(F)cc3)c(-c3ccc(OCCN4CCN(C)CC4)c(Cl)c3C)c12` [Example 850, octyl (2R)-2-{[(5Sa)-5-{3-chloro-2-methyl-4-[2-(4-methylpiperazin-1-yl)ethoxy]phenyl}-6-(4-fluorophenyl)thieno[2,3-d]pyrimidin-4-yl]oxy}-3-(2-methoxyphenyl)propanoate], the “percentage fluorescence polarisation inhibition (Mcl-1 FP), partial inhibitors” value is on record as 29.4% @ 10 uM.

Turning to `COc1ccccc1C[C@@H](Oc1ncnc2sc(-c3ccc(F)cc3)c(-c3ccc(OC)c(Cl)c3C)c12)C(=O)OCOC(=O)C(C)(C)C` [Example 846, {[(2R)-2-{[(5Sa)-5-(3-chloro-4-methoxy-2-methylphenyl)-6-(4-fluorophenyl)thieno[2,3-d]pyrimidin-4-yl]oxy}-3-(2-methoxyphenyl)propanoyl]oxy}methyl 2,2-dimethylpropanoate], the “percentage fluorescence polarisation inhibition (Mcl-1 FP), partial inhibitors” value is 25.1% @ 10 uM.

Source of the values: US9670227B2, “Thienopyrimidine derivatives, a process for their preparation and pharmaceutical compositions containing them” (LES LABORATOIRES SERVIER, priority 2013, dated 2017).
